In patent publication US10793582B2, “Bicyclic heterocyclic compound” (MITSUBISHI TANABE PHARMA CORPORATION, priority 2015, dated 2020):
Counter-ions that a name gives are not always drawn.

Target: human recombinant KAT-II (Homo sapiens (Human), UniProt Q8N5Z0)
Test: KAT-II inhibitory test
Assay type: biochemical
Settings: 3.0 μmol/L kynurenine, 37° C. for 1 hr, kynurenic acid by HPLC
Method: The compounds described in the above-mentioned Examples were used for the KAT-II inhibitory test.
Human recombinant KAT-II was prepared as follows.
His tag and maltose binding protein tag were added to the N-terminal of a gene encoding human KAT-II (Genbank accession number: AF481738.1), and the obtained gene was incorporated into pET32 (Merck Nihon Millipore), which is an Escherichia coli expression vector. Human recombinant KAT-II produced by BL21(DE3) Escherichia coli (Merck Nihon Millipore, 69450) transformed using the plasmid was purified using an amylose resin column (New England Biolabs, #800-21 L).
The inhibitory action of the test compound on human recombinant KAT-II was determined by the following method.
To a reaction mixture (45 μL) containing 3.0 μmol/L kynurenine, 10 μmol/L pyridoxal phosphate, 2.0 ng/μL human recombinant KAT-II, and 150 mmol/L tris(hydroxymethyl)aminomethane-acetate buffer (pH 8.0) was added a 10% dimethyl sulfoxide solution (5 μL) of each test compound prepared, and the mixture was reacted at 37° C. for 1 hr. After the reaction, 50% trichloroacetic acid (5 μL) was added to terminate the reaction.
The resultant kynurenic acid was quantified as follows by high performance liquid chromatography. An enzyme reaction mixture was separated by an octadecylsilane reversed-phase column (SC-50DS, Eicom Corporation; mobile phase: 250 mmol/L zinc acetate, 50 mmol/L sodium acetate, and 5.0% acetonitrile (pH 6.2)) incubated at 30° C., and kynurenic acid was quantified using a fluorescence detector (RF-20Axs, Shimadzu Corporation) at excitation wavelength 354 nm, detection wavelength 460 nm. The analytical curve was drawn every time by an external standard method. Each test compound was tested by dual measurement at each concentration. The kynurenic acid level in the presence of a test compound at each concentration was converted into % relative to kynurenic acid resulting from a reaction with an enzyme alone as 100%, and the obtained values were fitted to S-curve to determine IC50.

Sequence of human recombinant KAT-II (Q8N5Z0 30-425): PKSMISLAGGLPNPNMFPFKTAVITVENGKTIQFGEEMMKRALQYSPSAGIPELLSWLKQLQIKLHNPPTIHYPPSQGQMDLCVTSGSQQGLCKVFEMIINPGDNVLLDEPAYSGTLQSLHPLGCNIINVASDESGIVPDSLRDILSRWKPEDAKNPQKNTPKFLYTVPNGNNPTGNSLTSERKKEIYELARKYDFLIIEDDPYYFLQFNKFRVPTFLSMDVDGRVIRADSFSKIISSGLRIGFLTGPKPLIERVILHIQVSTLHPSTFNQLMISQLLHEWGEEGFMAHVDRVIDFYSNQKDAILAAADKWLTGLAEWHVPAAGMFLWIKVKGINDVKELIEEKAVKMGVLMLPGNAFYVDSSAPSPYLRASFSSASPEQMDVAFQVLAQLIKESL

Row | Compound | IC50 [nM]
1 | N#Cc1cnc2nc(N3CCC[C@@H]3C(=O)NCc3ccccc3)sc2c1C1CC1 [Example 161] | 81
2 | O=C(NCc1ccc(F)cc1)[C@H]1CCCN1c1nc2ncc(C3CC3)cc2s1 [Example 162, (R)-1-(6-cyclopropyl[1,3]thiazolo[4,5-b]pyridin-2-yl)-N-(4-fluorobenzyl)pyrrolidine-2-carboxamide] | 300
3 | COCc1c(F)cnc2nc(N3CCC[C@@H]3C(=O)NCc3ccccc3)sc12 [Example 163, (R)—N-benzyl-1-[6-fluoro-7-(methoxymethyl)[1,3]thiazolo[4,5-b]pyridin-2-yl]pyrrolidine-2-carboxamide] | 910
4 | CCOc1c(COC)cnc2nc(N3CCC[C@@H]3C(=O)NCc3ccccc3)sc12 [Example 164] | 150
5 | CCc1c(-c2cnn(C)c2)cnc2nc(N3CCC[C@@H]3C(=O)NCc3ccccc3)sc12 [Example 170, (R)—N-benzyl-1-[7-ethyl-6-(1-methyl-1H-pyrazol-4-yl)[1,3]thiazolo[4,5-b]pyridin-2-yl]pyrrolidine-2-carboxamide] | 34
6 | Cc1nc(C(C)(C)c2cnc3nc(N4CCC[C@@H]4C(=O)NCc4ccccc4)sc3c2)no1 [Example 171, (R)—N-benzyl-1-{6-[2-(5-methyl-1,2,4-oxadiazol-3-yl)propan-2-yl][1,3]thiazolo[4,5-b]pyridin-2-yl}pyrrolidine-2-carboxamide] | 390
7 | O=C(NCc1ccccc1)[C@H]1CCCN1c1nc2ncc(CN3CCCCC3)c(C3CC3)c2s1 [Example 175, (R)—N-benzyl-1-[7-cyclopropyl-6-(piperidin-1-ylmethyl)[1,3]thiazolo[4,5-b]pyridin-2-yl]pyrrolidine-2-carboxamide hydrochloride] | 360
8 | CN(C)Cc1cnc2nc(N3CCC[C@@H]3C(=O)NCc3ccccc3)sc2c1C1CC1 [Example 176, (R)—N-benzyl-1-{7-cyclopropyl-6-[(dimethylamino)methyl][1,3]thiazolo[4,5-b]pyridin-2-yl}pyrrolidine-2-carboxamide hydrochloride] | 190
9 | N#Cc1cnc2nc(N3CCC[C@@H]3C(=O)NCc3ccccc3Cl)sc2c1 [Example 178] | 900
10 | Cc1nc(-c2cnc3nc(N4CCC[C@@H]4C(=O)NCc4ccccc4)sc3c2)no1 [Example 183, (R)—N-benzyl-1-[6-(5-methyl-1,2,4-oxadiazol-3-yl)[1,3]thiazolo[4,5-b]pyridin-2-yl]pyrrolidine-2-carboxamide] | 640
11 | CCc1cnc2nc(N3CCC[C@@H]3C(=O)NCc3ccccc3)sc2n1 [Example 187] | 140
12 | CCc1cnc2nc(N3CCC[C@@H]3C(=O)NCc3ccc(F)cc3)sc2n1 [Example 188] | 300
13 | O=C(NCc1ccccc1)[C@H]1CCCN1c1nc2ncc(-c3ccccc3)nc2s1 [Example 189] | 210
14 | CCOc1cnc2nc(N3CCC[C@@H]3C(=O)NCc3ccccc3)sc2n1 [Example 190] | 490
15 | CN(C)c1cnc2nc(N3CCC[C@@H]3C(=O)NCc3ccccc3)sc2n1 [Example 191] | 210
16 | O=C(NCc1ccccc1)[C@H]1CCCN1c1nc2ncc(C3CC3)nc2s1 [Example 192, (R)—N-benzyl-1-(6-cyclopropyl[1,3]thiazolo[4,5-b]pyrazin-2-yl)pyrrolidine-2-carboxamide] | 33
17 | Cc1cnc2nc([C@H]3CCCN3C(=O)Cc3ccccc3)sc2c1 [Example 196, 1-[(R)-2-(6-methyl[1,3]thiazolo[4,5-b]pyridin-2-yl)pyrrolidin-1-yl]-2-phenylethanone] | 2900
18 | Cc1cnc2nc([C@H]3CCCN3C(=O)Oc3ccccc3)sc2c1 [Example 197, phenyl (R)-2-(6-methyl[1,3]thiazolo[4,5-b]pyridin-2-yl) pyrrolidine-1-carboxylate] | 3000
19 | Cc1cnc2nc([C@H]3CCCN3C(=O)NC3(c4ccccc4)CC3)sc2c1 [Example 203, (R)-2-(6-methyl[1,3]thiazolo[4,5-b]pyridin-2-yl)-N-(1-phenylcyclopropyl)-pyrrolidine-1-carboxamide] | 7400
